Laboratory results from patent publication US7001896B2, “Compositions for treating diabetes” (Otsuka Pharmaceutical Factory, Inc., priority 2000, dated 2006).

System: New Zealand white rabbits given high-fat, high-sugar feed
Test: Pharmacological Test Example 1: serum glucose level in rabbits fed high-fat, high-sugar feed
Assay type: in vivo
Settings: for serum glucose level (mean±S.D.): Group 2 (n = 6), high-fat, high-sugar feed containing 1% Compound A from week 4, fasted overnight, feed 35 g/kg/day
From the text: In this test, New Zealand white rabbits each weighing about 2 kg were divided into three groups, i.e., Group 1 consisting of 5 rabbits, Group 2 consisting of 6 rabbits, and Group 3 consisting of 6 rabbits.
The Group 1 rabbits were fed on an ordinary feed (Standard laboratory chow for rabbits, product of Shanghai Shengwang Experimental Animal Ranch (P.R. China)) (Normal Group).
The Group 2 rabbits were given for 4 weeks a high-fat, high-sugar feed prepared by adding 10% lard and 37% sucrose to the above-described standard laboratory chow. After confirming increases in blood glucose level, these rabbits were fed a high-fat, high-sugar feed as described above but containing 1% of the active ingredient (Compound A) of the pharmaceutical composition of the invention for treating diabetes (Experimental Group).
The Group 3 rabbits were fed the high-fat, high-sugar feed prepared by adding 10% lard and 37% sucrose to the standard laboratory chow described above (Control Group).
The rabbits of each group were allowed to eat the respective feeds ad libitum. In all groups, the amount of feed given was 35 g/kg/day per rabbit. The test period (period of feeding) was 24 weeks.
At the beginning of the test (0 week) and 4 weeks, 8 weeks, 12 weeks, 16 weeks, 20 weeks and 24 weeks later, the rabbits of each group fasted overnight, and blood samples were then collected from the auricular artery and assayed to measure the serum glucose level (mg/dl) using a commercially available glucose determination kit for enzymatic assaying (Glucose determination kit (Glucose oxidase-peroxidase method), product of Shanghai Rongsheng Biotech Inc. (P.R China).

Compound: CCOP(=O)(Cc1ccc(C(=O)Nc2ccc(Br)cc2C#N)cc1)OCC [Compound A, 4-diethoxyphosphinoylmethyl-N-(4-bromo-2-cyanophenyl)benzamide]
- serum glucose level (mean±S.D.) (8 weeks later): 124.7 ± 29.2 mg/dL
- serum glucose level (mean±S.D.) (12 weeks later): 84.7 ± 19.5 mg/dL
- serum glucose level (mean±S.D.) (16 weeks later): 85.3 ± 12.8 mg/dL
- serum glucose level (mean±S.D.) (20 weeks later): 90.0 ± 15.7 mg/dL
- serum glucose level (mean±S.D.) (24 weeks later): 73.6 ± 6.1 mg/dL
- change in blood glucose level (in words) (Group 2 given high-fat, high-sugar feed containing Compound A from 4 weeks after the beginning of the test, 24-week test, versus Control Group 3 with continuous increase): significant decrease in blood glucose level over time
